According to patent US20070149546A1, “4-Anilino-quinazoline derivatives as antiproliferative agents” (priority 2003, published 2007):
Where a name gives a salt, the structure may show the parent alone.

Experiments:
erbB2 [1] = molecular target: T1, erbB2 (Homo sapiens, UniProt P04626); experiment: Clone 24 phospho-erbB2 cell assay, Test (e); type: cell-based; parameters: a cell line that overexpresses full length wild type erbB2 protein; expressed in transfected cells; host or cells: MCF7 (breast carcinoma) derived Clone 24 cells; details: inhibition of phosphorylation of erbB2 in a MCF7 (breast carcinoma) derived cell line (Clone 24)
Protocol: The cells were resuspended in Growth Medium.
3 days later, Growth Medium was removed from the wells and replaced with 100 ul Assay Medium (phenol red free DM , 2 mM glutamine, 1.2 mg/ml G418) either with or without erbB inhibitor compound. Plates were returned to the incubator for 4 hours and then 20 μl of 20% formaldehyde solution in PBS was added to each well and the plate was left at room temperature for 30 minutes. This fixative solution was removed with a multichannel pipette, 100 μl of PBS was added to each well and then removed with a multichannel pipette and then 50 μl PBS was added to each well. Plates were then sealed and stored for up to 2 weeks at 4° C.
Immunostaining was performed at room temperature. Wells were washed once with 200 μl PBS/Tween 20 (made by adding 1 sachet of PBS/Tween dry powder (Sigma, No. P3563) to 1 L of double distilled H2O) using a plate washer then 200 μl Blocking Solution (5% Marvel dried skimmed milk (Nestle) in PBS/Tween 20) was added and incubated for 10 minutes. Blocking Solution was removed using a plate washer and 200 μl of 0.5% Triton X-100/PBS was added to permeabalise the cells. After 10 minutes, the plate was washed with 200μl PBS/Tween 20 and then 200 μl Blocking Solution was added once again and incubated for 15 minutes. […] Then this primary antibody solution was removed from the wells using a plate washer followed by two 200 μl PBS/Tween 20 washes using a plate washer. […] From now onwards, wherever possible, plates were protected from light exposure, at this stage by sealing with black backing tape. The plates were incubated for 45 minutes and then the secondary antibody solution was removed from the wells followed by two 200 ul PBS/Tween 20 washes using a plate washer. Then 100 μl PBS was added to each plate, incubated for 10 minutes and then removed using a plate washer. Then a further 100 μl PBS was added to each plate and then, without prolonged incubation, removed using a plate washer. Then 50 μl of PBS was added to each well and plates were resealed with black backing tape and stored for up to 2 days at 4° C. before analysis.
The Fluorescence signal is each well was measured using an Acumen Explorer Instrument (Acumen Bioscience Ltd.), a plate reader that can be used to rapidly quantitate features of images generated by laser-scanning. The instrument was set to measure the number of fluorescent objects above a pre-set threshold value and this provided a measure of the phosphorylation status of erbB2 protein. Fluorescence dose response data obtained with each compound was exported into a suitable software package (such as Origin) to perform curve fitting analysis. Inhibition of erbB2 phosphorylation was expressed as an IC50 value.
Target sequence in this assay (P04626 23-1255): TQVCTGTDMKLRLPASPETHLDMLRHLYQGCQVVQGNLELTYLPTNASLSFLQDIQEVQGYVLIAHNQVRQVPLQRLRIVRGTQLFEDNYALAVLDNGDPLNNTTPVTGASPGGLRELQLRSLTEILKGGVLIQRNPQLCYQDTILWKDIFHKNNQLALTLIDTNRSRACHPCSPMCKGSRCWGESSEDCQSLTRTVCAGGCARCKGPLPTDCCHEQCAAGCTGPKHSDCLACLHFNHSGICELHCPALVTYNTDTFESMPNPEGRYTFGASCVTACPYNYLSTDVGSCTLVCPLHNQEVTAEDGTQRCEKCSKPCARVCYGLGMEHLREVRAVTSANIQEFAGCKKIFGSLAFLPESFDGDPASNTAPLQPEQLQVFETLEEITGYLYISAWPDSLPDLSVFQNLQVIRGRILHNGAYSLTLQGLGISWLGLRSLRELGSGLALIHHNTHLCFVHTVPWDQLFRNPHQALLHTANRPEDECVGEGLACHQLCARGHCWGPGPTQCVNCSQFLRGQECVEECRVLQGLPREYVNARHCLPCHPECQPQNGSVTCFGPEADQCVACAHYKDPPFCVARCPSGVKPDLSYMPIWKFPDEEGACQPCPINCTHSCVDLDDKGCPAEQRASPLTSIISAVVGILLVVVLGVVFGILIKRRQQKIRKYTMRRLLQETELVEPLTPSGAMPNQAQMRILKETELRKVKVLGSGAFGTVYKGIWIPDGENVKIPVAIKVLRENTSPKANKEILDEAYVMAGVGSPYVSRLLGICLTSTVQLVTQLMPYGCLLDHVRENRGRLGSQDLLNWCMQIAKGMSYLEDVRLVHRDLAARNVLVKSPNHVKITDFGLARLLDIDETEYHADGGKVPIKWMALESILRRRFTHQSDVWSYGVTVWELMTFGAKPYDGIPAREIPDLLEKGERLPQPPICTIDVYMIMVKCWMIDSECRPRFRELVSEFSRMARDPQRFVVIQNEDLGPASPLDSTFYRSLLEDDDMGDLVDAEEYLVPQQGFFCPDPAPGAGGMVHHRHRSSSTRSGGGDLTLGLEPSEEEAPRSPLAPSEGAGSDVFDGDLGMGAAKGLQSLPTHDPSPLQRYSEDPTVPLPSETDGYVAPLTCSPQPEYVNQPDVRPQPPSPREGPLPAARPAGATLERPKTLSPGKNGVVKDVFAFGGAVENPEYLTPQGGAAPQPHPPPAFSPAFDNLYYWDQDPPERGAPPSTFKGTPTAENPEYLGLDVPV

erbB2 [2] = molecular target: T1, erbB2; experiment: Protein tyrosine kinase phosphorylation assay, Test (a): erbB2; type: biochemical; parameters: Recombinant intracellular fragments of EGFR and erbB2; made in house; host or cells: baculovirus/Sf21 insect cells; details: inhibition of phosphorylation of a tyrosine containing polypeptide substrate by erbB2 kinase; ATP at Km
Protocol: (§1) This test measures the ability of a test compound to inhibit the phosphorylation of a tyrosine containing polypeptide substrate by an enzyme selected from the EGFR kinase and erbB2 kinase.
(§2) Recombinant intracellular fragments of EGFR and erbB2 (accession numbers X00588 and X03363 respectively) were cloned and expressed in the baculovirus/Sf21 system. Lysates were prepared from these cells by treatment with ice-cold lysis buffer (20 mM N-2-hydroxyethylpiperizine-N′-2-ethanesulfonic acid (HEPES) pH 7.5, 150 mM NaCl, 10% glycerol, 1% Triton X-100, 1.5 mM MgCl2, 1 mM ethylene glycol-bis(β-aminoethyl ether) N′,N′,N′,N′-tetraacetic acid (EGTA), plus protease inhibitors and then cleared by centrifugation.
(§3) Constitutive kinase activity of these recombinant proteins was determined by their ability to phosphorylate a synthetic peptide (made up of a random co-polymer of Glutamic Acid, Alanine and Tyrosine in the ratio of 6:3:1). Specifically, Maxisorb™ 96-well immunoplates were coated with synthetic peptide (0.2 μg of peptide in a 200 μl phosphate buffered saline (PBS) solution and incubated at 4° C. overnight). Plates were washed in 50 mM HEPES pH 7.4 at room temperature to remove any excess unbound synthetic peptide. […] Reactions were terminated by the removal of the liquid components of the assay followed by washing of the plates with PBS-T (phosphate buffered saline with 0.5% Tween 20).
(§4) The immobilised phospho-peptide product of the reaction was detected by immunological methods. Firstly, plates were incubated for 90 minutes at room temperature with anti-phosphotyrosine primary antibodies that were raised in the mouse (4G10 from Upstate Biotechnology). Following extensive washing, plates were treated with Horseradish Peroxidase (HRP) conjugated sheep anti-mouse secondary antibody (NXA931 from Amersham) for 60 minutes at room temperature. After further washing, HRP activity in each well of the plate was measured colorimetrically using 22′-Azino-di-[3-ethylbenzthiazoline sulfonate (6)] diammonium salt crystals (ABTS™ from Roche) as a substrate.
(§5) Kinase inhibition for a given compound was expressed as an IC50 value. […] The range of phosphorylation was calculated from the positive (vehicle plus ATP) and negative (vehicle minus ATP) control values.
Target sequence in this assay (P04626 676-1255 limits assumed): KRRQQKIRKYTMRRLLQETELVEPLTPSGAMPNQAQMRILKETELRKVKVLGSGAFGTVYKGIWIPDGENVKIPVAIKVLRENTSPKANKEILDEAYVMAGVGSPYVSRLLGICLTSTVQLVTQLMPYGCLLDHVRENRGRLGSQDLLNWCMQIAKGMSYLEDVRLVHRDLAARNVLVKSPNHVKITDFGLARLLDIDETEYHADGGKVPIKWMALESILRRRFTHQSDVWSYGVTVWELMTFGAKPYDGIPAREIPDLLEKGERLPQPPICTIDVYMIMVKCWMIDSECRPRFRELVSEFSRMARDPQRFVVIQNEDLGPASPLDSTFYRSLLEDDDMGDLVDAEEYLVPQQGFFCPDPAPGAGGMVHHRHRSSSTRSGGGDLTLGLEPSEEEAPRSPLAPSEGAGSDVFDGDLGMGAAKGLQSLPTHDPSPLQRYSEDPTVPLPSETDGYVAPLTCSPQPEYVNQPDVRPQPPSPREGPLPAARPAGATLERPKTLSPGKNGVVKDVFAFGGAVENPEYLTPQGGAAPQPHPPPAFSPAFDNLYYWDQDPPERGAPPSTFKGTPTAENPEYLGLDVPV

EGFR kinase = molecular target: T2, EGFR kinase (Homo sapiens, UniProt P00533); experiment: Protein tyrosine kinase phosphorylation assay, Test (a): EGFR; type: biochemical; details: inhibition of phosphorylation of a tyrosine containing polypeptide substrate by EGFR kinase; ATP at Km
T2 construct: Recombinant intracellular fragments of EGFR and erbB2; made in house; host or cells: baculovirus/Sf21 insect cells
T2 sequence (P00533 669-1210 limits assumed): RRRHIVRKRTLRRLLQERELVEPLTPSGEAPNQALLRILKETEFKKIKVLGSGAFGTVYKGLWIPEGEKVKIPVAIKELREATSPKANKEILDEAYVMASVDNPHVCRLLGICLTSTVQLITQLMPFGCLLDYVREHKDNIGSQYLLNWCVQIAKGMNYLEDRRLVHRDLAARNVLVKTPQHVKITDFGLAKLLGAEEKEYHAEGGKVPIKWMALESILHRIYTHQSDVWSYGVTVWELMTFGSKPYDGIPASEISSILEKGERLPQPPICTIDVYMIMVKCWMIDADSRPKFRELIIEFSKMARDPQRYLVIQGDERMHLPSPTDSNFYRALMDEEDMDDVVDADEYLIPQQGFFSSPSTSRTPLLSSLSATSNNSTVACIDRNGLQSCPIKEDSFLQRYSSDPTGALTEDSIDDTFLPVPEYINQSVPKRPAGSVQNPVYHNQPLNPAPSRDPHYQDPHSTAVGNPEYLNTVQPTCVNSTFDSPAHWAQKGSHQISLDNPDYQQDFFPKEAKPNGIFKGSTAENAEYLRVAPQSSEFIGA
Protocol: as §1, §2, §3, §4, §5

IC50 (erbB2 [1])	IC50 (erbB2 [2])	IC50 (EGFR kinase)	SMILES
0.003 µM	0.002 µM	4.3 µM	COc1cc(Nc2ncnc3cccc(OC(C)CN(C)C)c23)ccc1Oc1ccccc1 (stereo not drawn) [Example 54, 5-[2-(Dimethylamino)-1-methylethoxy]-N-(3-methoxy-4-phenoxyphenyl)quinazolin-4-amine]
0.001 µM	0.002 µM	0.068 µM	C[C@H](CN(C)C)Oc1cccc2ncnc(Nc3ccc(OCc4cscn4)c(Cl)c3)c12 [Example 23]
0.003 µM	0.017 µM	8.4 µM	COc1cc(Nc2ncnc3cccc(OCCN(C)C)c23)ccc1OCc1cc(C)on1 [Example 37, 5-[2-(Dimethylamino)ethoxy]-N-{3-methoxy-4-[(5-methylisoxazol-3-yl)methoxy]phenyl}quinazolin-4-amine]
0.002 µM	0.002 µM	0.49 µM	CN(C)CC(C)(C)Oc1cccc2ncnc(Nc3ccc(OCc4ccccn4)c(Cl)c3)c12 [Example 56, N-[3-Chloro-4-(pyridin-2-ylmethoxy)phenyl]-5-[2-(dimethylamino)-1,1-dimethylethoxy]quinazolin-4-amine]
0.001 µM	0.005 µM	0.064 µM	C[C@H](CN(C)C)Oc1cccc2ncnc(Nc3ccc(Sc4nccn4C)c(Cl)c3)c12 [Example 53, N-{3-Chloro-4-[(1-methyl-1H-imidazol-2-yl)thio]phenyl}-5-[(1R)-2-(dimethylamino)-1-methylethoxy]quinazolin-4-amine dihydrochloride]
